Measurements as given in ChEMBL document CHEMBL1136811, “Design of novel chimeric melanotropin-deltorphin analogues. Discovery of the first potent human melanocortin 1 receptor antagonist” (J Med Chem, 2003).
pEC50: −log10 of the molar value.

Assays:
[1] = target: Melanocortin receptor 1 (Xenopus laevis); assay: Agonistic activity towards Melanocortin 1 receptor in the Xenopus frog skin assay
[2] = tested on: Melanocortin receptor 1 (Xenopus laevis); assay: Antagonistic activity towards Melanocortin 1 receptor in Xenopus frog skin using competitive binding in the presence of 500 pM of alpha-melanocyte stimulating hormone.

pEC50 [1]	IC50 [2]	SMILES
	Not Active	CC(C)[C@H](NC(=O)[C@@H]1CCC(=O)NCCC(=O)N[C@@H](Cc2c[nH]cn2)C(=O)N[C@H](Cc2ccccc2)C(=O)N[C@@H](CCCN=C(N)N)C(=O)N[C@@H](Cc2c[nH]c3ccccc23)C(=O)N1)C(=O)N[C@H](C(=O)NCC(N)=O)C(C)C
7.22	Not Active	CC(C)[C@H](NC(=O)[C@@H]1CCC(=O)N[C@@H](Cc2c[nH]cn2)C(=O)N[C@H](Cc2ccc3ccccc3c2)C(=O)N[C@@H](CCCN=C(N)N)C(=O)N[C@@H](Cc2c[nH]c3ccccc23)C(=O)N1)C(=O)N[C@H](C(=O)NCC(N)=O)C(C)C
8.70	Not Active	CC(C)[C@H](NC(=O)[C@@H]1CCC(=O)NCCC(=O)N[C@@H](Cc2c[nH]cn2)C(=O)N[C@H](Cc2ccc3ccccc3c2)C(=O)N[C@@H](CCCN=C(N)N)C(=O)N[C@@H](Cc2c[nH]c3ccccc23)C(=O)N1)C(=O)N[C@H](C(=O)NCC(N)=O)C(C)C
< 5.00		CC(C)[C@H](NC(=O)[C@@H]1CCC(=O)N[C@@H](Cc2cnc[nH]2)C(=O)N[C@@H](Cc2ccccc2)C(=O)N[C@@H](CCCNC(=N)N)C(=O)N[C@@H](Cc2c[nH]c3ccccc23)C(=O)N1)C(=O)N[C@H](C(=O)NCC(N)=O)C(C)C
7.64		CC(C)[C@H](NC(=O)[C@@H]1CCC(=O)NCCCC(=O)N[C@@H](Cc2cnc[nH]2)C(=O)N[C@H](Cc2ccc3ccccc3c2)C(=O)N[C@@H](CCCNC(=N)N)C(=O)N[C@@H](Cc2c[nH]c3ccccc23)C(=O)N1)C(=O)N[C@H](C(=O)NCC(N)=O)C(C)C
7.22	Not Active	CC(C)[C@H](NC(=O)[C@@H]1CCC(=O)NCC(=O)N[C@@H](Cc2c[nH]cn2)C(=O)N[C@H](Cc2ccc3ccccc3c2)C(=O)N[C@@H](CCCN=C(N)N)C(=O)N[C@@H](Cc2c[nH]c3ccccc23)C(=O)N1)C(=O)N[C@H](C(=O)NCC(N)=O)C(C)C
< 5.00		CC(C)[C@H](NC(=O)[C@@H]1CCC(=O)NCC(=O)N2CCC[C@H]2C(=O)N[C@H](Cc2ccc3ccccc3c2)C(=O)N[C@@H](CCCN=C(N)N)C(=O)N[C@@H](Cc2c[nH]c3ccccc23)C(=O)N1)C(=O)N[C@H](C(=O)NCC(N)=O)C(C)C
6.08		CC(C)[C@H](NC(=O)[C@@H]1CCC(=O)N[C@@H](Cc2c[nH]cn2)C(=O)N[C@H](Cc2ccccc2)C(=O)N[C@@H](CCCN=C(N)N)C(=O)N[C@@H](Cc2c[nH]c3ccccc23)C(=O)N1)C(=O)N[C@H](C(=O)NCC(N)=O)C(C)C
5.28	Not Active	CC(C)[C@H](NC(=O)[C@@H]1CCC(=O)NCC(=O)N[C@@H](Cc2cnc[nH]2)C(=O)N[C@@H](Cc2ccccc2)C(=O)N[C@@H](CCCNC(=N)N)C(=O)N[C@@H](Cc2c[nH]c3ccccc23)C(=O)N1)C(=O)N[C@H](C(=O)NCC(N)=O)C(C)C

The remaining lines, values behind:

SMILES	pEC50 [1]	IC50 [2]
CC(C)[C@H](NC(=O)[C@@H]1CCC(=O)NCC(=O)N[C@@H](Cc2c[nH]cn2)C(=O)N[C@H](Cc2ccccc2)C(=O)N[C@@H](CCCN=C(N)N)C(=O)N[C@@H](Cc2c[nH]c3ccccc23)C(=O)N1)C(=O)N[C@H](C(=O)NCC(N)=O)C(C)C	6.29	Not Active
CC(C)[C@H](NC(=O)[C@@H]1CCC(=O)NCCCCCC(=O)N[C@@H](Cc2c[nH]cn2)C(=O)N[C@@H](Cc2ccccc2)C(=O)N[C@@H](CCCN=C(N)N)C(=O)N[C@@H](Cc2c[nH]c3ccccc23)C(=O)N1)C(=O)N[C@H](C(=O)NCC(N)=O)C(C)C	< 5.00	Not Active
CC(C)[C@H](NC(=O)[C@@H]1CCC(=O)NCCCCCC(=O)N[C@@H](Cc2c[nH]cn2)C(=O)N[C@H](Cc2ccccc2)C(=O)N[C@@H](CCCN=C(N)N)C(=O)N[C@@H](Cc2c[nH]c3ccccc23)C(=O)N1)C(=O)N[C@H](C(=O)NCC(N)=O)C(C)C	7.64	Not Active
CC(C)[C@H](NC(=O)[C@@H]1CCC(=O)NCCCC(=O)N[C@@H](Cc2c[nH]cn2)C(=O)N[C@@H](Cc2ccccc2)C(=O)N[C@@H](CCCN=C(N)N)C(=O)N[C@@H](Cc2c[nH]c3ccccc23)C(=O)N1)C(=O)N[C@H](C(=O)NCC(N)=O)C(C)C	5.57	Not Active
CC(C)[C@H](NC(=O)[C@@H]1CCC(=O)NCCC(=O)N[C@@H](Cc2cnc[nH]2)C(=O)N[C@H](Cc2ccccc2)C(=O)N[C@@H](CCCNC(=N)N)C(=O)N[C@@H](Cc2c[nH]c3ccccc23)C(=O)N1)C(=O)N[C@H](C(=O)NCC(N)=O)C(C)C	7.51	
CC(C)[C@H](NC(=O)[C@@H]1CCC(=O)NCC(=O)N2CCC[C@H]2C(=O)N[C@H](Cc2ccccc2)C(=O)N[C@@H](CCCN=C(N)N)C(=O)N[C@@H](Cc2c[nH]c3ccccc23)C(=O)N1)C(=O)N[C@H](C(=O)NCC(N)=O)C(C)C	< 5.00	
CC(C)[C@H](NC(=O)[C@@H]1CCC(=O)NCCCC(=O)N[C@@H](Cc2c[nH]cn2)C(=O)N[C@H](Cc2ccccc2)C(=O)N[C@@H](CCCN=C(N)N)C(=O)N[C@@H](Cc2c[nH]c3ccccc23)C(=O)N1)C(=O)N[C@H](C(=O)NCC(N)=O)C(C)C	6.50	Not Active
CC(C)[C@H](NC(=O)[C@@H]1CCC(=O)NCCCC(=O)N[C@@H](Cc2c[nH]cn2)C(=O)N[C@H](Cc2ccc3ccccc3c2)C(=O)N[C@@H](CCCN=C(N)N)C(=O)N[C@@H](Cc2c[nH]c3ccccc23)C(=O)N1)C(=O)N[C@H](C(=O)NCC(N)=O)C(C)C		Not Active
CC(C)[C@H](NC(=O)[C@@H]1CCC(=O)N2CCC[C@H]2C(=O)N[C@H](Cc2ccc3ccccc3c2)C(=O)N[C@@H](CCCN=C(N)N)C(=O)N[C@@H](Cc2c[nH]c3ccccc23)C(=O)N1)C(=O)N[C@H](C(=O)NCC(N)=O)C(C)C	< 5.00	
CC(C)[C@H](NC(=O)[C@@H]1CCC(=O)NCC(=O)N[C@@H](Cc2cncn2COCc2ccccc2)C(=O)N[C@H](Cc2ccccc2)C(=O)N[C@@H](CCCN=C(N)N)C(=O)N[C@@H](Cc2c[nH]c3ccccc23)C(=O)N1)C(=O)N[C@H](C(=O)NCC(N)=O)C(C)C	< 5.00	
